Peptide text beside a SMILES is read from it.

Broadly, the logP is the decadic logarithm of the partition coefficient of the neutral form, usually between octanol and water. Read a low logP as lower lipophilicity. As to `OCCCOc1cccc(CN2CCCCC2)c1`, the logP was determined as 2.78.

`Clc1cccc(-c2ccccc2Cl)c1` yielded a logP of 5.02.

Molecule `COc1cccc(Cl)c1` had a logP of 2.98.

In the case of `O=C(/C=C/c1ccccc1)c1ccccc1`, the logP was 3.08.

Regarding `CCCCC(=O)O`, the logP was found to be 1.39.

In turn, `OCCCO` returned a logP of -1.04.

`O=C1CN=C(c2ccccc2Cl)c2cc([N+](=O)[O-])ccc2N1` gave a logP of 2.41.

On to `CCCCCOc1cccc(O)c1`, for which the logP worked out at 3.63.

On to `CN(C)C(=O)OCc1ccc(Br)cc1`, for which the logP stood at 3.01.

Take `Cc1ccc(-c2cc3ccccn3c2)cc1`: the logP came out at 4.96.

With `COC=O`, the logP came to 0.03.

Regarding `Cc1ccc(C(O)c2ccccc2)cc1` (stereo not drawn), the logP was 3.13.

`CC12CCC3C(CCC4(O)CC(O)CCC34C=O)C1(O)CCC2C1=CC(=O)OC1` (stereo not drawn) returned a logP of 0.64.

On to `CN(C)C(=O)Nc1cccc(F)c1`, for which the logP worked out at 1.37.

`CN(C)C(=O)Nc1ccc(F)cc1` displayed a logP of 1.13.

For the molecule `CN(C)CC(F)(F)F`, the logP is 1.06. This logP and that of the molecule before are within 0.2 log units of each other.

Regarding `CCC1C(=O)NC(=O)NC1=O`, the logP was -0.35.

Turning to `O=C1C=C(N2CCCC2)C(=O)C=C1N1CCCC1`, the logP was 1.97.

As to `CCCOc1cccc(C=C(C(C)=O)C(=O)OCC)c1`, the logP stood at 3.34.

`CSc1ccc(COC(=O)N(C)C)cc1`: the logP was 2.86.

In turn, `CCCCC(=O)O[C@]1(C(=O)CO)[C@@H](C)C[C@H]2[C@@H]3CCC4=CC(=O)C=C[C@]4(C)[C@@]3(F)[C@@H](O)C[C@@]21C` showed a logP of 3.6.

The molecule `Cc1cc2nc[nH]c2cc1C` yielded a logP of 2.35.

Consider `NCCCCCc1ccncc1`, for which the logP worked out at 1.4.

Regarding `CCO[Si](OCC)(OCC)c1ccccc1`, the logP amounted to 2.99.

Turning to `c1ccc(-c2ccncc2)nc1`, the logP worked out at 1.58.

`CCCCCn1cnc2c(NC(C)=O)ncnc21` had a logP of 0.98.

Molecule `Nc1cccc([N+](=O)[O-])c1N` showed a logP of 1.27.

Molecule `CC1=CC(=O)C=CC1=O` displayed a logP of 0.72.

As to `O=COc1ccccc1`, the logP was determined as 1.26.

Molecule `Cc1c(Cl)cc(-c2ccc(=O)[nH]n2)cc1Cl` had a logP of 3.2.

On to `CCOC(=O)c1ccc(N)cc1`, for which the logP came out at 1.86.

The molecule `C=CC(=O)OCC(C)C` gave a logP of 2.22.

For the molecule `CCOC(=O)C(=Cc1ccc(Cl)cc1)C(C)=O`, the logP was found to be 3.04.

Molecule `CC(=O)Oc1cccc(F)c1` showed a logP of 1.74.

In turn, `CC(=O)C(F)(F)F` displayed a logP of 0.2.

The molecule `CC(Cl)[N+](=O)[O-]` (stereo not drawn) gave a logP of 1.1.

`Oc1cc(Cl)ccc1Cl` yielded a logP of 3.06.

`S=C=NCc1ccccc1` had a logP of 3.16.

As to `N#CCc1ccc(Cl)cc1`, the logP was 2.47.

Regarding `CN(C)C(=O)Nc1ccc(C(C)(C)C)cc1`, the logP was determined as 3.1.

In turn, `CCCN(CCC)CCC` showed a logP of 2.79.

Turning to `CCN(CC)CC(O)c1ccccc1` (stereo not drawn), the logP came to 2.02.

Molecule `CC(=O)NC(C)(C)C(N)=O` showed a logP of -0.87.

Molecule `O=C(Nc1ccccc1)NC1CC(O)C(CO)OC1O` (stereo not drawn) gave a logP of -0.61.

For the molecule `S=C=S`, the logP is 1.94.

As for `C=CCOc1noc2c1CNCC2`, the logP was determined as 0.56.

Consider `O=[N+]([O-])c1cnc2ccccc2c1`, for which the logP stood at 1.97.

Regarding `CCOc1cccnc1`, the logP is 1.44.

For `CCCCCCC(C)(C)c1ccc(C2CC(O)CCC2CCCCO)c(O)c1` (stereo not drawn), the logP turned out to be 6.68.

`O=C(Nc1ccccc1)c1ccccc1O` returned a logP of 3.27.

As to `OCC(O)COc1ccccc1` (stereo not drawn), the logP turned out to be 0.7.

Turning to `Nc1ccc(C(=O)Oc2cccc(C(F)(F)F)c2)c(O)c1`, the logP came out at 3.61.

Consider `COc1cc(C(O)CO)ccc1O` (stereo not drawn), for which the logP is -0.58.

In turn, `CCN(CC)C(C)=O` had a logP of 0.34.

`COP(=S)(OC)Oc1ccc([N+](=O)[O-])cc1Cl` displayed a logP of 3.58.

As to `CCC(C)c1cccc(C(C)CC)c1O` (stereo not drawn), the logP was 4.36.

As for `CCCCCCCc1nn[nH]n1`, the logP was determined as 2.01.

On to `CC1(C)S[C@@H]2[C@H](NC(=O)C(C(=O)Oc3ccc4c(c3)CCC4)c3ccccc3)C(=O)N2[C@H]1C(=O)O` (stereo partly drawn), for which the logP was found to be 3.77.

In the case of `CNS(=O)(=O)c1ccc(S(I)=C(N(C)C)N(C)C)cc1` (stereo not drawn), the logP is -1.4.

`NC(=O)CCCCc1ccccn1` gave a logP of 0.38.

Molecule `Nc1cccc2cccnc12` yielded a logP of 1.79.

With `CCC(=O)C1(c2cccc(OC(=O)CC(C)(C)C)c2)CCN(C)CC1`, the logP was 3.17.

For `CCC(Br)C(=O)O` (stereo not drawn), the logP amounted to 1.42.

With `Fc1ccccc1F`, the logP turned out to be 2.37.

In turn, `CCCCCCCOc1ccc(NC(=O)OCCN2CCCCC2)cc1` came in with a logP of 5.87.

On to `CCC[C@@H]1C[C@@H](C(=O)N[C@@H]([C@H]2O[C@H](SC)[C@H](O)[C@@H](O)[C@H]2O)[C@@H](C)O)N(C)C1`, for which the log partition coefficient (logP) worked out at 0.2.

For `NC(=O)CCCCc1cccnc1`, the logP stood at 0.4.

Turning to `COP1(=S)OCc2ccccc2O1` (stereo not drawn), the log partition coefficient (logP) amounted to 2.67.

As for `COP(=S)(OC)Oc1cc(C)c([N+](=O)[O-])c(C)c1`, the lipophilicity (logP) is 3.89.

Regarding `Nc1cn[nH]c1`, the logP was -1.09.

On to `O=C(O)c1ccc(I)cc1`, for which the logP was 3.02.

In the case of `CCN(N=O)C(=O)N(C)C`, the logP turned out to be 0.71.

Regarding `O=S1(=O)Nc2ccccc2N1`, the logP worked out at 1.12.

Turning to `Cc1cccc(C)c1NC(=O)C1CNCCN1` (stereo not drawn), the lipophilicity (logP) was determined as 0.38.

In turn, `c1ccc(Cn2ccnn2)cc1` showed a lipophilicity (logP) of 1.27.

For `O=c1c2ccccc2oc2ccccc12`, the logP was determined as 3.39.

In turn, `CCCCCCC(NC(C)=O)C(=O)OC` (stereo not drawn) gave a logP of 1.7.

On to `c1ccc(Cc2cc(-c3ccccc3)nnc2NCCN2CCOCC2)cc1`, for which the logP stood at 3.65.

Turning to `O=C(O)CSc1c[nH]c2ccccc12`, the logP was 1.78.

On to `C=C(C=O)CC`, for which the logP was found to be 1.24.

For `C=CCNCCC`, the logP was 1.33.

With `CCC(N)=O`, the logP was -0.66.

Regarding `Clc1nc(Cl)c(Cl)[nH]1`, the logP amounted to 1.85.

Take `Cc1cc(Cl)ccc1O`: the logP turned out to be 2.78.

As to `CC(=O)c1c[nH]c2ccccc12`, the log partition coefficient (logP) was 2.06.

In the case of `CC12CCC(=O)C=C1CCC1C2C(O)CC2(C)C1CCC2(O)C(=O)COC(=O)CCCCCO` (stereo not drawn), the logP is 2.79.

In turn, `c1cncc([C@@H]2CCCN2)c1` displayed a logP of 0.17.

`CC1CN(N=O)CC(C)N1` (stereo not drawn) displayed a logP of 0.73.

Take `O=C(O)c1cccc(Oc2ccccc2)c1`: the logP worked out at 3.91.

The molecule `Cc1ccc(O)c(C)c1` returned a logP of 2.3.

For the molecule `O=c1ccc(=O)[nH][nH]1`, the logP was -0.84.

On to `C1COC1`, for which the logP was -0.14.

In turn, `BrCCCBr` gave a logP of 2.37.

Consider `C[C@]12CC[C@@H]3c4ccc(O)cc4CC[C@H]3[C@@H]1C[C@@H](O)[C@@H]2O`, for which the lipophilicity (logP) turned out to be 2.45. The logP values of the last two molecules are within 0.2 log units of each other.

`CC(C)c1ccc(O)cc1` came in with a logP of 2.9.

In turn, `CC(=O)N[C@@H](Cc1c[nH]c2ccccc12)C(=O)N[C@@H](C)C(=O)N[C@H](C(N)=O)C(C)C` (Ac-Trp-Ala-Val-NH2) yielded a logP of 0.36.

As for `O=C1CCCCCCCCCCC1`, the logP stood at 4.1.

In turn, `NC(=O)CF` came in with a log partition coefficient (logP) of -1.05.

Consider `CCOC(=O)CC`, for which the logP turned out to be 1.21.

`OCC=CCO` had a logP of -0.81.

`Sc1ccccn1`: the logP is -0.13.

For `CC(=O)[C@@]1(O)CC[C@H]2[C@@H]3C[C@H](C)C4=CC(=O)C=C[C@]4(C)[C@@]3(F)[C@@H](O)C[C@@]21C`, the logP stood at 2.

For `OB(O)c1ccccc1`, the logP stood at 1.58.

Take `CC1CO1` (stereo not drawn): the logP was found to be 0.03.

Molecule `CCN(CC)CCNC(=O)c1ccccc1` came in with a logP of 1.99.

In turn, `CN(C)C(N(C)C)=S(I)c1cccc(Cl)c1Cl` (stereo not drawn) gave a logP of 0.29.

Regarding `CN(C)C(=O)c1ccco1`, the logP stood at 0.41. The logP values of the last two molecules are within 0.2 log units of each other.

Turning to `CCc1cccc(OC(=O)NC)c1`, the logP amounted to 2.2.

The molecule `CCCCC(C)(C)c1ccc(C2CCCC(O)C2)c(O)c1` (stereo not drawn) displayed a logP of 5.43.

`O=C(NP(=O)(N1CC1)N1CC1)c1ccc(Br)cc1` yielded a logP of 1.63.

Consider `c1cncc([C@@H]2CCCCN2)c1`, for which the logP was 0.97.

As to `O=[N+]([O-])CCc1ccccc1`, the logP came to 2.08.

In turn, `CCn1nnc(Oc2ccc(NC(=O)N(C)C)cc2Cl)n1` gave a logP of 1.7.

On to `CNP(=O)(OC)Oc1ccc(C(C)(C)C)cc1Cl` (stereo not drawn), for which the logP was 3.42.

In turn, `O=C(Nc1ccccc1)c1cccnc1` gave a logP of 1.73.

Molecule `CC1CN1C1=CC(=O)c2ccccc2C1=O` (stereo not drawn) displayed a logP of 2.17.

`O=[N+]([O-])c1ncn(CC(F)CO)n1` (stereo not drawn) gave a logP of -0.8.

With `NCCc1ccccc1`, the logP was determined as 1.41.

`CC(=O)Nc1ccc(I)cc1` had a logP of 2.71.

As for `O=C1c2ccccc2C(=O)C1c1ccccc1`, the logP was found to be 2.9.

`CCc1cccc2cccnc12` gave a logP of 2.93.

Consider `CCOC(=O)C(=O)OCC`, for which the logP is 0.56.

As for `COc1cc([C@@H]2c3cc4c(cc3[C@H](O)[C@H]3COC(=O)[C@H]23)OCO4)cc(OC)c1OC`, the logP is 2.01.

On to `Cn1nc2ccccc2n1`, for which the logP worked out at 1.64.

`CCOC(=O)C(=O)c1cccs1` showed a logP of 1.77.

Regarding `C/N=C(\N)NC#N`, the logP was -0.77.

On to `CCC(=O)OC1(C(=O)CBr)C(C)CC2C3CCC4=CC(=O)C=CC4(C)C3(F)C(=O)CC21C` (stereo not drawn), for which the logP was found to be 3.55.

Molecule `Oc1ccc(Cn2cc[nH]c2=S)cc1` had a logP of 1.02.

Turning to `CCCCCCOc1ccc(S(N)(=O)=O)cc1`, the logP is 2.93.

Regarding `COC(=O)c1cccc(O)c1`, the logP was 1.89.

For `O=C1CN=C(c2ccccc2C(F)(F)F)c2cc([N+](=O)[O-])ccc2N1`, the logP was found to be 2.51.

The molecule `NC(=O)CCCc1ccncc1` registered a logP of -0.09.

The molecule `Nc1ccccc1Br` showed a logP of 2.11.

For `CC(=O)N(C)c1ccc(O)cc1`, the logP was determined as 0.61.

`CNc1ccc(C)cc1` had a logP of 2.15.

On to `N=C(N)NC(=O)Nc1ccc(Cl)cc1`, for which the logP worked out at 1.78.

Molecule `O=C(O)C1c2ccccc2Oc2ccccc21` yielded a logP of 2.23.

Molecule `CC1(C)N=C(N)N=C(N)N1c1ccccc1` yielded a logP of 0.28.
